# In US20250082648A1, “COMPOSITIONS AND METHODS FOR ENHANCING KRAS INHIBITOR OR SHP2 INHIBITOR EFFICACY” (New York University, priority 2023, published 2025):
# Tests used:
# H2122 cells = conditions: individual H2122 data (top); MRTX-849 vs vehicle 48 hr
# Procedure: Bulk RNA-seq was performed on total RNA from cell lines or isolated tumor cells by the PCC Genome Technology Center Shared Resource (GTC). Libraries were prepared with the Illumina TruSeq Stranded Total RNA Sample Preparation Kit and sequenced on an Illumina NovaSeq 6000 platform utilizing 150-bp paired end reads. Sequencing data were de-multiplexed and transformed into FASTQ format by using Illumina bcl2fastq software. […] Briefly, sequencing results were transformed into FASTQ format by using Illumina bcl2fastq software. Reads were adapter- and quality-trimmed using Trimmomatic before alignment with the human or mouse genome using the splice-aware STAR aligner. Using featureCounts (49), counts for each gene were created based on the number of aligned reads overlapping its exons. These counts were standardized and subsequently evaluated for differential expression via the DESeq2 R package, using negative binomial generalized linear models. Lastly, the Enrichr tool was employed for pathway analysis of the bulk RNA-seq data.
# YAP1 = YAP1 and DAPI immunofluorescence (YAP1 nuclear localization); type: cell-based
# Source text: […]. […] Datasets (color-coded) used for pathway analysis are indicated at right with the sizes of the circles indicating statistical significance. […]. All immunofluorescence images are representative of three independent experiments. Scale bar=20 μm.
# . FIG. 4B is a bubble plot showing pathways (p<0.05) enriched in SL genes (FDR<0.1). Datasets used for analysis are color-coded at right; the sizes of the circles indicate significance level. FIG. 4C is a Circos plot illustrating the overlap of SL genes (FDR<0.1) between lines. […]. FIGS. 10C-10D show quantification of YAP nuclear localization in presence of ROCK-I, in data from FIGS. 3G-3H. *p<0.05, 1-way ANOVA with Tukey's multiple comparisons test.
# YAP = test: YAP1 immunofluorescence (nuclear localization); type: cell-based, human
# Procedure: Immunofluorescence. […]. Cells were then fixed in 4% paraformaldehyde for 10 minutes at room temperature, rinsed three times for 5 min. each in PBS, and permeabilized in 0.1% Triton X-100/5% FBS in PBS for a 1 hr at RT. […] Nuclei were stained with DAPI (BioLegend, Cat #: 422801) for 5 min, and slides were washed two more times in PBS before mounting with Fluorescence Mounting Medium (Dako, Cat #: S3023). Images were acquired with a Zeiss 880 Laser Scanning Confocal Microscope (Axio Observer) equipped with Zen 3.0 software (ZEN blue, Carl Zeiss Inc.) and were processed by Fiji software (NIH).
# NSCLC lines = test: Cell viability and proliferation assays (CCK8, trypan blue counts, Bliss analysis); type: cell-based, human; conditions: for effect on MRTX-849 action: multiple NSCLC lines, including those not STK11 and/or KEAP1 mutant
# Procedure: Cell viability and proliferation assays. […] Media (including inhibitors) were replaced every two days. Dose-response curves were generated using the […] Cell Counting Kit-8 (CCK8) assay (Enzo, ALX-850-039-KI02). Three hours after addition of CCK-8 reagent to cells, A450 was recorded using a FlexStation 3 multi-mode microplate reader according to the manufacturer's instructions. IC50s were calculated with GraphPad Prism. For all other proliferation assays, cells were harvested and stained with trypan blue (#T8154, Sigma-Aldrich), and viable (trypan blue-excluding) cells were quantified with a Countless II automated cell counter (Invitrogen).
# KCL cells = test: Cell viability and proliferation assays (CCK8, trypan blue counts); conditions: combined with MRTX-849 at its IC50 dose
# KCL lung tumors = test: KCL GEMM (KRAS G12C; Stk11 fl/fl, Ad-Cre) long-term treatment, MRI monitoring; conditions: MRTX849 100 mg/kg/d plus SHP099 75 mg/kg/d; resistant tumors soon recurred
# [1] = system: KCL syngeneic tumor grafts; test: KCL syngeneic tumor grafts in C57BL/6J mice; type: in vivo, mouse; conditions: MRTX-849 100 mg/kg/d, 30 days of treatment; VT104 10 mg/kg/d
# Procedure: (§1) For syngeneic tumor experiments, KCL cells (10^6 in 200 ml PBS) were injected subcutaneously into the right flanks of male C57BL/6J mice (Jackson Laboratory). For xenografts, H2030 cells (5×10^6) were injected subcutaneously into the right flanks of Crl:NU-Foxn1nu/nu mice (Charles River, #088) with a 1:1 mixture of cell suspension in Matrigel (Corning, Cat #354234). […] Mice were weighed two times a week prior to dosing and throughout the study. Tumors were measured in 2 dimensions (length and width) twice a week and volumes (mm^3) were calculated as (length×width^2)/2).
# [2] = system: H2030 cell-derived xenografts; test: H2030 cell-derived xenografts in nu/nu mice; type: in vivo, mouse; conditions: MRTX-849 100 mg/kg/d, 30 days of treatment; VT104 10 mg/kg/d
# Procedure: as §1
# [3] = preliminary results; cited from earlier work
compound,measurement,setting,value
"C=C(F)C(=O)N1CCN(c2nc(OC[C@@H]3CCCN3C)nc3c2CCN(c2cccc4cccc(Cl)c24)C3)C[C@@H]1CC#N [MRTX-849, adagrasib]","PSAP RNA-seq, column median2",H2122 cells,0.7802
same,nuclear translocation of YAP,"YAP1; H2030, H2122, H23, MiaPaca2 cells, MRTX-849 at IC50",induces RHO/ROCK-dependent nuclear translocation of YAP
same,levels of nuclear YAP,YAP; H2030 cells,increased
same,time at which nuclear YAP increase begins,YAP; H2030 cells,4 h
same,time at which nuclear YAP peaks,YAP; H2030 cells,24 to 48 h
C=CC(=O)N1C[C@@H](n2cc(-c3cccnc3)nn2)[C@H](OCc2ccc(C(F)(F)F)cc2)C1 [MYF-03-69],effect on MRTX-849 action,NSCLC lines,synergistically augmented
C=C(F)C(=O)N1C[C@@H](Nc2ncccn2)[C@H](OCc2ccc(C(F)(F)F)cc2)C1 [MYF-03-176],IC50 in YAP1 over-expressing cells,KCL cells,higher
CC1(N)CCN(c2cnc(-c3cccc(Cl)c3Cl)c(N)n2)CC1 [SHP099],response of tumors recurred after prolonged MRTX-849 treatment,KCL lung tumors,partial responses
C[C@H](NC(=O)c1ccc2c(-c3ccc(C(F)(F)F)cc3)cccc2c1)c1ccccn1 [VT104],tumor response,[1],minimal
same,tumor response,[2],minimal
C[C@@H](NC(=O)c1ccc2c(-c3ccc(C(F)(F)F)cc3)cccc2c1)c1cccc(N)n1 [VT106],effect on drug sensitivity,NSCLC lines; inactive analog control,no effect
C[C@H](CO)NC(=O)c1ccc2c(Oc3ccc(C(F)(F)F)cc3)cccc2c1 [VT3989],safety in phase 1 clinical trial,[3],safe with manageable toxicity
C[C@H](NC(=O)c1ccc2c(-c3ccc(C(F)(F)F)cc3)cccc2c1)c1ccccn1 [VT-104],effect on efficacy of combination MRTX849/TNO-155,"NSCLC lines; NSCLC lines, vs single agent or two drug-combinations, all at reduced doses",increased the efficacy
same,effect on MRTX-849 action,NSCLC lines,synergistically augmented
same,IC50 in YAP1 over-expressing cells,KCL cells,higher
C[C@@H](N)[C@H]1CC[C@H](C(=O)Nc2ccncc2)CC1 [Y27632],effect of addition on MRTX-849 efficacy,NSCLC lines; two cell lines tested,increased MRTX-849 efficacy
same,YAP nuclear translocation induced by MRTX treatment,YAP; MRTX treatment for 24 hr plus ROCK inhibitor,inhibited
same,YAP nuclear translocation induced by MRTX treatment,YAP; after 48h of treatment plus ROCK inhibitor,to an even greater extent
C[C@@H](N)[C@H]1CC[C@H](C(=O)Nc2ccncc2)CC1 [Y-27632],MRTX-849-induced YAP1 nuclear localization,"YAP1; NSCLC lines, MRTX-849 at IC50 with or without Y-27632 (10 μM)",impairs MRTX-849-induced YAP1 nuclear localization
